The record followed here is patent publication US9951065B2 (Gilead Sciences, Inc., priority 2015, dated 2018).

T1 sequence (P14902 whole entry): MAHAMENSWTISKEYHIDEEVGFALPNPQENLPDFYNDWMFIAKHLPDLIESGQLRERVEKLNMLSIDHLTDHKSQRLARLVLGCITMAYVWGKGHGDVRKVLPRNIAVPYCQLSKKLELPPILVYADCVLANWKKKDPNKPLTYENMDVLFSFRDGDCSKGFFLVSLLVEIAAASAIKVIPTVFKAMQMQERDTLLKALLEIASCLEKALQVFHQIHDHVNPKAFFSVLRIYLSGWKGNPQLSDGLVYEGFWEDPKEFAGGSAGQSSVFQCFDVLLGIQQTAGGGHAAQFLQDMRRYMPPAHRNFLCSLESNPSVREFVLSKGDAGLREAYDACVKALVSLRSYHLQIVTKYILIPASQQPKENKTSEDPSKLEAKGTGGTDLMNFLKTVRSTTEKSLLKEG

One assay concerns the target T1, IDO1 (Homo sapiens, UniProt P14902).
T1 construct: HeLa cells were treated with a test compound in the presence of IFNγ, which induces IDO1 expression; host or cells: H1-HeLa cells, IDO1 induced with IFNγ
The assay can be described thus: Cell-based (HeLa) assay for measurement of IDO1 inhibition (kynurenine levels in supernatant after IFNγ induction). The following applies: HeLa cells, IFNγ-induced IDO1, kynurenine in supernatant after 48 hour incubation; geometric mean of a minimum of four determinations. Here is the method: Example 509. Cell-Based (HeLa) Assay for Measurement of IDOL Inhibition
To measure IDO1 inhibition in tissue culture, HeLa cells were treated with a test compound in the presence of IFNγ, which induces IDO1 expression. Following incubation, cell supernatants were assayed for kynurenine levels, an indicator of IDO1 activity.
H1-HeLa cells (ATCC #CRL-1958) were seeded in 384-well plates (Greiner #82051-282) at a volume of 50 μL/well in DMEM (Corning #15-018-CM) supplemented with 10% FBS (Corning #35-011-CV) and 1% P/S/G (Corning #30-009-CL) at a density of 1,250 cells/well and incubated overnight at 37° C., 5% CO2/100% humidity. The following day, the test compounds were added in DMSO (0.5% final) at various concentrations, and IDO1 was inducibly expressed by the addition of 50 uL/well of […] of INFγ (Peprotech #300-02) in cell plating media. As a […] control, 50 uL of the cell plating media without IFNγ was added to several wells. Following a 48 hour incubation, the plates were spun down at 1,200 RPM for 5 min at 10° C. 65 μL/well of the supernatant was then transferred to new 384-well plates (Thermo #262160) that contained 10 uL/well of 30% TCA (Sigma #TO699), and the plates were sealed and incubated at 60° C. for 30 min. The plates were then centrifuged for 15 min at 2,000 RPM at 10° C. 40 μL/well of the supernatant was transferred to new 384-well plates (Thermo #262160) and was reacted with 40 μL/well of 2% (w/v) p-dimethlyaminobenzaldehyde (Sigma #156417) in glacial acetic acid (Sigma #A6283). The reaction was incubated at room temperature for 10 min and absorbance at 480 nm was read using a PerkinElmer Envision plate reader.
Data in Table 1 were normalized based on positive (−IFNγ) and negative (+IFNγ) controls and EC50 values were calculated from the fit of the dose response curves to a four-parameter equation. All EC50 values represent geometric mean values of a minimum of four determinations. These assays generally produced results within 2-fold of the reported mean.
`O/N=C(\Nc1ccc(F)c(Cl)c1)c1ccnc2nc(CCN3CCC3)[nH]c12` [Example 259, 2-(2-(azetidin-1-yl)ethyl)-N-(3-chloro-4-fluorophenyl)-N′-hydroxy-1H-imidazo[4,5-b]-pyridine-7-carboximidamide] displayed a 50% effective concentration (EC50) of 1300 nM.

Regarding `CC(C)(C)OC(=O)NCCc1nc2c(F)c(F)cc(/C(=N/O)Nc3ccc(F)c(Cl)c3)c2[nH]1` [Example 213, tert-butyl (2-(7-(N-(3-chloro-4-fluorophenyl)-N′-hydroxycarbamimidoyl)-4,5-difluoro-1H-benzo[d]imidazol-2-yl)ethyl)carbamate], the EC50 amounted to 3620 nM.

Turning to `O/N=C(\Nc1ccc(F)c(Cl)c1)c1ccnc2nc(NCC(F)(F)F)[nH]c12` [Example 157, N-(3-Chloro-4-fluorophenyl)-N′-hydroxy-2-((2,2,2-trifluoroethyl)amino)-1H-imidazo[4,5-b]pyridine-7-carboximidamide], the EC50 was 1090 nM.

On to `O/N=C(\Nc1ccc(F)c(Cl)c1)c1ccnc2nc(NC3CCC3)[nH]c12` [Example 164, N-(3-Chloro-4-fluorophenyl)-2-(cyclobutylamino)-N′-hydroxy-1H-imidazo[4,5-b]pyridine-7-carboximidamide], for which a half-maximal effect (EC50) was put at 798 nM.

As for `O/N=C(\Nc1ccc2ccoc2c1)c1ccnc2nc[nH]c12` [Example 68, N-(Benzofuran-6-yl)-N′-hydroxy-1H-imidazo[4,5-b]pyridine-7-carboximidamide], a half-maximal response (EC50) required 890 nM.

Regarding `COCCNc1nc2c(F)c(F)cc(/C(=N/O)Nc3ccc(F)c(Cl)c3)c2[nH]1` [Example 40, N-(3-Chloro-4-fluorophenyl)-4,5-difluoro-N′-hydroxy-2-((2-methoxyethyl)amino)-1H-benzo[d]imidazole-7-carboximidamide], the EC50 worked out at 1520 nM.

`CN1CCC(Nc2nc3nccc(/C(=N/O)Nc4ccc(F)c(Cl)c4)c3[nH]2)C1` (stereo not drawn) [Example 203, N-(3-Chloro-4-fluorophenyl)-N′-hydroxy-2-[(1-methylpyrrolidin-3-yl)amino]-1H-imidazo[4,5-b]pyridine-7-carboximidamide] registered an EC50 of 1340 nM.

Molecule `CNCc1nc2c(F)ccc(/C(=N/O)Nc3ccc(F)c(Cl)c3)c2[nH]1` [Example 290, N-(3-chloro-4-fluorophenyl)-4-fluoro-N′-hydroxy-2-((methylamino)methyl)-1H-benzo[d]imidazole-7-carboximidamide] yielded a concentration giving a half-maximal response (EC50) of 1290 nM.

For `O/N=C(\Nc1ccc(F)c(Cl)c1)c1ccnc2nc(C(O)c3ccccc3)[nH]c12` (stereo not drawn) [Example 173, N-(3-Chloro-4-fluorophenyl)-N′-hydroxy-2-(hydroxy(phenyl)methyl)-1H-imidazo[4,5-b]pyridine-7-carboximidamide], it took 9700 nM to reach a half-maximal effect (EC50).

The molecule `O/N=C(\Nc1ccc(F)c(Cl)c1)c1ccnc2nc(NCCN3CCCCC3)[nH]c12` [Example 222, N-(3-chloro-4-fluorophenyl)-N′-hydroxy-2-((2-(piperidin-1-yl)ethyl)amino)-1H-imidazo[4,5-b]pyridine-7-carboximidamide] gave an EC50 of 1520 nM.

`O/N=C(\Nc1ccc(F)c(Br)c1)c1ccnc2nc[nH]c12` [Example 81, N-(3-Bromo-4-fluorophenyl)-N′-hydroxy-1H-imidazo[4,5-b]pyridine-7-carboximidamide] gave an EC50 of 140 nM.

`O/N=C(\Nc1ccc(F)c(Cl)c1)c1ccc(C(F)(F)F)c2nc[nH]c12` [Example 7, N-(3-Chloro-4-fluorophenyl)-N′-hydroxy-4-(trifluoromethyl)-1H-benzo[d]imidazole-7-carboximidamide] had an EC50 of 926 nM.

`O/N=C(\Nc1cc(Cl)c(F)cc1F)c1ccnc2nc[nH]c12` [Example 62, N-(5-Chloro-2,4-difluorophenyl)-N′-hydroxy-1H-imidazo[4,5-b]pyridine-7-carboximidamide] had an EC50 of 385 nM.

In the case of `COc1ccc(CNCCc2nc3nccc(/C(=N/O)Nc4ccc(F)c(Cl)c4)c3[nH]2)c(OC)c1` [Example 274, N-(3-chloro-4-fluorophenyl)-2-(2-((2,4-dimethoxybenzyl)amino)ethyl)-N′-hydroxy-1H-imidazo[4,5-b]pyridine-7-carboximidamide], the response was half-maximal at 1970 nM (EC50).

`O=S1(=O)CCN(CCNc2nc3nccc(/C(=N/O)Nc4ccc(F)c(Cl)c4)c3[nH]2)CC1` [Example 218, N-(3-chloro-4-fluorophenyl)-2-((2-(1,1-dioxidothiomorpholino)ethyl)amino)-N′-hydroxy-1H-imidazo[4,5-b]pyridine-7-carboximidamide]: the EC50 is more than 10000 nM.

For `CN(C)CCc1nc2c(/C(=N/O)Nc3ccc(F)c(Br)c3)cc(F)c(F)c2[nH]1` [Example 54, N-(3-Bromo-4-fluorophenyl)-2-(2-(dimethylamino)ethyl)-6,7-difluoro-N′-hydroxy-1H-benzo[d]imidazole-4-carboximidamide], the EC50 came out at 461 nM.

As to `O/N=C(\Nc1ccc(F)c(Cl)c1)c1cc(F)cc2nc[nH]c12` [Example 4, N-(3-Chloro-4-fluorophenyl)-5-fluoro-N′-hydroxy-1H-benzo[d]imidazole-7-carboximidamide], a half-maximal effect (EC50) was put at 527 nM.

For the molecule `CN(C)c1nc2nccc(/C(=N/O)Nc3ccc(F)c(Cl)c3)c2[nH]1` [Example 169, N-(3-Chloro-4-fluorophenyl)-2-(dimethylamino)-N′-hydroxy-1H-imidazo[4,5-b]pyridine-7-carboximidamide], a half-maximal effect (EC50) was put at 6270 nM.

`CN1CCCCC(Nc2nc3nccc(/C(=N/O)Nc4ccc(F)c(Cl)c4)c3[nH]2)C1` (stereo not drawn) [Example 217, N-(3-chloro-4-fluorophenyl)-N′-hydroxy-2-((1-methylazepan-3-yl)amino)-1H-imidazo[4,5-b]pyridine-7-carboximidamide]: the EC50 turned out to be 2870 nM.

Still in this assay, the particulars now being: HeLa cells, IFNγ-induced IDO1, kynurenine in supernatant, 48 hour incubation; geometric mean of a minimum of four determinations.
Consider `CC(=O)NCCNc1nc2nccc(/C(=N/O)Nc3ccc(F)c(Cl)c3)c2[nH]1` [Example 404, N-(2-((7-(N-(3-chloro-4-fluorophenyl)-N′-hydroxycarbamimidoyl)-1H-imidazo[4,5-b]pyridin-2-yl)amino)ethyl)acetamide], for which the EC50 was more than 10000 nM.

Consider `CN1CCC[C@@H](Nc2nc3c(F)c(F)cc(/C(=N/O)Nc4cccc(Cl)c4)c3[nH]2)C1` [Example 460, (R)—N-(3-chlorophenyl)-4,5-difluoro-N′-hydroxy-2-((1-methylpiperidin-3-yl)amino)-1H-benzo[d]imidazole-7-carboximidamide], for which the EC50 amounted to 193 nM.

`NS(=O)(=O)NCCNc1nc2c(F)c(F)cc(/C(=N/O)Nc3ccc(F)c(Cl)c3)c2[nH]1` [Example 338, N-(3-chloro-4-fluorophenyl)-4,5-difluoro-N′-hydroxy-2-((2-(sulfamoylamino)ethyl)amino)-1H-benzo[d]imidazole-7-carboximidamide] yielded an EC50 of more than 10000 nM.

For `CN(C)CCNc1nc2c(F)c(F)cc(/C(=N/O)Nc3ccc(F)c(Br)c3)c2[nH]1` [Example 432, N-(3-bromo-4-fluorophenyl)-2-((2-(dimethylamino)ethyl)amino)-4,5-difluoro-N′-hydroxy-1H-benzo[d]imidazole-7-carboximidamide], the concentration giving a half-maximal response (EC50) was determined as 253 nM.

Take `CN1CCCC1CCNc1nc2c(F)c(F)cc(/C(=N/O)Nc3ccc(F)c(Cl)c3)c2[nH]1` (stereo not drawn) [Example 354, N-(3-chloro-4-fluorophenyl)-4,5-difluoro-N′-hydroxy-2-((2-(1-methylpyrrolidin-2-yl)ethyl)amino)-1H-benzo[d]imidazole-7-carboximidamide]: the half-maximal effective concentration (EC50) is 1210 nM.

Turning to `CN(C)[C@H]1CCC[C@H](Nc2nc3c(F)c(F)cc(/C(=N/O)Nc4ccc(F)c(Cl)c4)c3[nH]2)C1` [Example 439, N-(3-chloro-4-fluorophenyl)-2-(((1S,3S)-3-(dimethylamino)cyclohexyl)amino)-4,5-difluoro-N′-hydroxy-1H-benzo[d]imidazole-7-carboximidamide], the response was half-maximal at 6800 nM (EC50).

`CC(C)(O)Cc1nc2c(F)c(F)cc(/C(=N/O)Nc3ccc(F)c(Cl)c3)c2[nH]1` [Example 302, N-(3-chloro-4-fluorophenyl)-4,5-difluoro-N′-hydroxy-2-(2-hydroxy-2-methylpropyl)-1H-benzo[d]imidazole-7-carboximidamide]: the EC50 was more than 10000 nM.

The molecule `CC1CN(C(C)(C)CNc2nc3nccc(/C(=N/O)Nc4ccc(F)c(Cl)c4)c3[nH]2)CC(C)O1` (stereo not drawn) [Example 484, N-(3-chloro-4-fluorophenyl)-2-((2-(2,6-dimethylmorpholino)-2-methylpropyl)amino)-N′-hydroxy-1H-imidazo[4,5-b]pyridine-7-carboximidamide] returned an EC50 of 566 nM.

In general, EC50 refers to the concentration needed to bring the measured effect to its halfway point. Lower therefore signals an effect from little substance.
